In patent publication US8685974B2 (Bayer CropScience AG, priority 2009, dated 2014):
Read-outs that look alike come from different tables or passages of the source. Marks after values point to notes of the source that are not given here.

Tests used:
[1] = tested on: Fusarium graminearum; type: cell-based; conditions: 50 μM; for % Inhibition of DON/AcDON at 50 μM: 7 days at 28° C.

| Compound | % Inhibition of fungal growth at 50 μM [1] | % Inhibition of DON/AcDON at 50 μM [1] | log p (pH 2.7) | other results |
| --- | --- | --- | --- | --- |
| Brc1ccc(-c2nn(C3CCCC3)cc2-c2ccncc2)s1 [Example 356] | 75% | 97% | 2.37^[b] | – |
| CC(C)Cn1ncc(-c2ccncc2)c1-c1ccc(Br)s1 [Example 406] | 0% | 95% | 1.91^[b] | – |
| C=CCNc1nccc(-c2cn(C(C)CC)nc2-c2ccc(Cl)s2)n1 (stereo not shown) [Example 196] | 83% | 99% | – | log p (pH 2.3): 3.39^[a] |
| CCC(C)Nc1nccc(-c2cn(C(C)CC)nc2-c2ccc(Cl)s2)n1 (stereo not shown) [Example 197] | 73% | 90% | – | log p (pH 2.3): 3.48^[a] |
| N#CCCn1cc(-c2ccncc2)c(-c2cc3ccsc3s2)n1 [Example 338] | 50% | 99% | 1.07^[b] | – |
| Clc1ccc(Cn2cc(-c3ccncc3)c(-c3ccc(Br)s3)n2)s1 [Example 351] | 36% | 99% | 2.69^[b] | – |
| CC(C)n1cc(-c2ccnc(N)c2)c(-c2ccc(Cl)s2)n1 [Example 306] | 87% | 100% | 1.78^[b] | – |
| CC(C)n1ncc(-c2ccncc2)c1-c1ccc(F)s1 [Example 109] | 49% | 100% | 1.51^[b] | – |
| CSc1ccc(-c2nn(C(C)C)cc2-c2ccncc2)s1 [Example 294] | 92% | 99% | 1.79^[b] | – |
| ClCCn1cc(-c2ccncc2)c(-c2cc3ccsc3s2)n1 [Example 370] | 70% | 99% | 1.7^[b] | – |
| Fc1ccc(-c2n[nH]cc2-c2ccncc2)s1 [Example 105] | 0% | 88% | 0.57^[b] | – |
| COCC(=O)Nc1cc(-c2cn(C(C)C)nc2-c2ccc(Cl)s2)ccn1 [Example 244] | 100% | 99% | 3.25^[b] | – |
| Cn1cc(-c2ccnc(Cl)c2)c(-c2ccc(Cl)s2)n1 [Example 313] | 6% | 98% | 3.37^[b] | – |
| CC(C)n1cc(-c2ccncc2)c(-c2ccc(I)s2)n1 [Example 214] | 89% | 99% | 1.89^[b] | – |
| N#CCCn1cc(-c2ccncc2)c(-c2ccc(Cl)s2)n1 [Example 322] | 0% | 99% | 0.98^[b] | – |
| O=C1OCCC1n1cc(-c2ccncc2)c(-c2cc3ccsc3s2)n1 (stereo not shown) [Example 372] | 1% | 98% | 1.49^[b] | – |
| CCOCCn1cc(-c2ccncc2)c(-c2ccc(Br)s2)n1 [Example 349] | 95% | 99% | 1.75^[b] | – |
| CCn1cc(-c2ccnc(Cl)c2)c(-c2ccc(Cl)s2)n1 [Example 316] | 37% | 87% | 3.89^[b] | – |
| N#CCn1cc(-c2ccncc2)c(-c2ccc(Br)s2)n1 [Example 348] | 45% | 99% | 1.51^[b] | – |
| ClCCn1cc(-c2ccncc2)c(-c2ccc(Br)s2)n1 [Example 393] | 96% | 99% | 1.78^[b] | logP value of the minor isomer (pH 2.7): (1.61) |

| Compound | % Inhibition of fungal growth at 50 μM [1] | % Inhibition of DON/AcDON at 50 μM [1] | log p (pH 2.7) | other results |
| --- | --- | --- | --- | --- |
| Fc1cccc(Cn2cc(-c3ccncc3)c(-c3ccc(Cl)s3)n2)c1F [Example 325] | – | – | 2.39^[b] | – |
| C#CCNc1cc(-c2cn(CC(C)C)nc2-c2ccc(Cl)s2)cc[n+]1[O-] [Example 84] | – | – | – | log p (pH 2.3): 2.92^[a] |
| Cn1cc(-c2ccnc(N=C(c3ccccc3)c3ccccc3)c2)c(-c2ccc(Cl)s2)n1 [Example 309] | – | – | 4.67^[b] | – |
| CC(C)n1cc(-c2ccnc(N=C(c3ccccc3)c3ccccc3)c2)c(-c2ccc(Cl)s2)n1 [4-[(3/5)-(5-Chloro-2-thienyl)-1-isopropyl-1H-pyrazol-4-yl]-N-(diphenylmethylene)pyridin-2-amine] | – | – | – | logP (pH2.7) (pH 2.7): 4.46; logP (pH2.7), minor isomer (pH 2.7): 3.96 |
| CC(C)n1cc(-c2ccncc2)c(-c2cc(Cl)cs2)n1 [Example 114] | – | – | 1.6^[b] | logP value of the minor isomer (in parenthesis in column Isomer ratio [d]) (pH 2.7): (1.74) |
| CCOCCn1cc(-c2ccnc(NC(C)C)n2)c(-c2ccc(Cl)s2)n1 [Example 120] | – | – | 2.56^[b] | logP value of the minor isomer (in parenthesis in column Isomer ratio [d]) (pH 2.7): (2.33) |
| CCC(C)n1cc(-c2ccnc(Br)c2)c(-c2ccc(Cl)s2)n1 (stereo not shown) [Example 100] | – | – | 5.03^[b] | – |
| CC(C)n1cc(-c2ccnc(N=C(c3ccccc3)c3ccccc3)c2)c(-c2ccc(Cl)s2)n1 [Example 310] | – | – | 4.46^[b] | – |
| CC(=O)Nc1cc(-c2cn(C)nc2-c2ccc(NC(C)=O)s2)ccn1 [Example 216] | – | – | 0.76^[b] | – |
| Clc1sc(-c2n[nH]cc2-c2ccncc2)c(Cl)c1Cl [Example 2] | – | – | 1.52^[b] | – |
| CC(C)Nc1nccc(-c2cn(CC#N)nc2-c2ccc(Cl)s2)n1 [Example 122] | – | – | 2.4^[b] | – |
| COCn1cc(-c2ccncc2)c(-c2sccc2Cl)n1 [Example 129] | – | – | 0.95^[b] | – |
| CC(=O)Nc1ccc(-c2nn(C)cc2-c2ccnc(N(C(C)=O)C(C)=O)c2)s1 [Example 290] | – | – | 1.39^[b] | – |
| CC(C)n1cc(-c2ccncc2)c(-c2sccc2Cl)n1 [Example 158] | – | – | 1.38^[b] | – |
| ClCCn1cc(-c2ccncc2)c(-c2sccc2Cl)n1 [Example 134] | – | – | 1.22^[b] | logP value of the minor isomer (pH 2.7): (1.29) |
| CC(C)CCn1cc(-c2ccncn2)c(-c2ccc(Cl)s2)n1 [Example 27] | – | – | 3.8^[b] | – |
| CC1(Cn2cc(-c3ccncc3)c(-c3ccc(Cl)s3)n2)CC1(Cl)Cl (stereo not shown) [Example 324] | 0% | 93% | 2.71^[b] | – |
| Clc1ccc(Cn2cc(-c3ccncc3)c(-c3cc4ccsc4s3)n2)s1 [Example 339] | – | – | 2.57^[b] | logP value of the minor isomer (between parenthesis, Isomer ratio column) (pH 2.7): (2.35) |
| CC(C)Cn1cc(-c2cc[n+]([O-])c(Cl)c2)c(-c2ccc(Cl)s2)n1 [2-Chloro-4-[1-isobutyl-3-(5-chloro-2-thienyl)-1H-pyrazol-4-yl]pyridine-N-oxyde] | – | – | – | logP (pH2.7) (pH 2.7): 2.82 |
| CC(C)Cn1cc(-c2ccncc2)c(-c2cc3sccc3s2)n1 [4-[1-isobutyl-(3/5)-(3-thieno[3,2-b]thiophen-2-yl)-1H-pyrazol-4-yl]pyridine] | – | – | – | logP (pH2.7) (pH 2.7): 2.07; logP (pH2.7), minor isomer (pH 2.7): 2.02 |

| Compound | % Inhibition of fungal growth at 50 μM [1] | % Inhibition of DON/AcDON at 50 μM [1] | log p (pH 2.7) | other results |
| --- | --- | --- | --- | --- |
| Nc1cc(-c2cn(/C=C/F)nc2-c2ccc(Cl)s2)ccn1 [Example 301] | 60% | 99% | 1.59^[b] | – |
| CC(C)Cn1cc(-c2ccnc(N)c2)c(-c2ccc(Cl)s2)n1 [2-Amino-4-[1-isobutyl-(3/5)-(5-chloro-2-thienyl)-1H-pyrazol-4-yl]pyridine] | – | – | – | logP (pH2.7) (pH 2.7): 2.04; logP (pH2.7), minor isomer (pH 2.7): 1.93 |
| CC(C)n1cc(-c2ccnc(NS(=O)(=O)N(C)C)c2)c(-c2ccc(Cl)s2)n1 [Example 218] | – | – | 3^[b] | – |
| CCn1cc(-c2ccnc(NC(=O)N(C)C)c2)c(-c2ccc(Cl)s2)n1 [Example 251] | 100% | 99% | 1.72^[b] | – |
| ClC(Cl)=CCn1cc(-c2ccncc2)c(-c2cc3ccsc3s2)n1 [Example 335] | – | – | 1.67^[b] | – |
| Fc1ccc(-c2nn(Cc3ccc(Cl)s3)cc2-c2ccncc2)s1 [Example 341] | 55% | 96% | 2.34^[b] | – |
| Clc1ccc(-c2nn(-c3ccccc3)cc2-c2ccncc2)s1 [Example 22] | – | – | 2.63^[b] | – |
| Clc1ccc(-c2c(-c3ccncc3)cnn2C2CCCC2)s1 [Example 16] | – | – | 2.13^[b] | – |
| 4-[5-Bromo-3-(5-chloro-2-thienyl)-1-(4-methoxybenzyl)-1H-pyrazol-4-yl]pyridine and 4-[3-bromo-5-(5-chloro-2-thienyl)-1-(4-methoxybenzyl)-1H-pyrazol-4-yl]pyridine | – | – | – | logP (pH2.7) (pH 2.7): 3.53; logP (pH2.7), minor isomer (pH 2.7): 3.0 |
| CCC(C)n1cc(-c2ccnc(NC(C)C)n2)c(-c2ccc(Cl)s2)n1 (stereo not shown) [Example 189] | – | – | – | log p (pH 2.3): 3.25^[a] |
| CC(C)n1cc(-c2ccnc(Cl)n2)c(-c2ccc(Cl)s2)n1 [Example 192] | – | – | – | log p (pH 2.3): 4.31^[a] |
| CCOC(=O)n1cc(-c2ccncc2)c(-c2ccc(Cl)s2)n1 [Example 87] | – | – | 1.97^[b] | – |
| Clc1ccc(-c2n[nH]cc2-c2ccnc(NCc3ccccc3)n2)s1 [Example 90] | – | – | – | log p (pH 2.3): 2.37^[a] |
| Cc1[nH]nc(-c2ccc(Cl)s2)c1-c1ccncc1 [Example 68] | – | – | 1.07^[b] | – |
| COc1ccc(Cn2nc(-c3ccc(Cl)s3)c(-c3ccncc3)c2[Si](C)(C)C)cc1 [Example 102] | – | – | 4.84^[b] | – |
| CC(C)(C)Cn1ncc(-c2ccncc2)c1-c1ccc(Cl)s1 [Example 25] | – | – | 2.17^[b] | – |
| CCCCNC(=O)c1ccc(-c2[nH]ncc2-c2ccncc2)s1 [Example 37] | – | – | 0.0^[b] | – |
| Clc1ccc(-c2c(-c3ccncc3)cnn2Cc2ccccc2)s1 [Example 42] | – | – | – | log p (pH 2.3): 1.94^[a] |
